Test results from ChEMBL document CHEMBL1909294, “Translating clinical findings into knowledge in drug safety evaluation--drug induced liver injury prediction system (DILIps)” (PLoS Comput Biol, 2011).

What was measured:
Hepatotoxicity [1] = system: Hepatotoxicity;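 for HepSE bilirubinemia: bilirubinemia hepatic side effect score drawn from the DILIps training data, a prediction system for drug-induced liver injury; call rule not given here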;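 for HepSE cholecystitis: Cholecystitis-related hepatic side effect score drawn from the DILIps (drug-induced liver injury prediction) training data set; call rule not given here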;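 for HepSE cirrhosis: cirrhosis hepatic side effect score taken from the DILIps (drug-induced liver injury prediction) training set; call rule not given here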; for HepSE hepatic failure: call rule not given here;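 for HepSE hepatomegaly: hepatic side effect score for hepatomegaly, taken from the training set of the DILIps drug-induced liver injury prediction system; call rule not given here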; for HepSE liver disease: call rule not given here;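 for HepSE liver fatty: hepatic side effect score for fatty liver, taken from the DILIps training set for predicting drug-induced liver injury; call rule not given here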
Hepatotoxicity [2] = system: Hepatotoxicity; remark: listed apart in the source;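 for HepSE bilirubinemia: bilirubinemia hepatic side effect score drawn from the DILIps training data, a prediction system for drug-induced liver injury; call rule not given here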;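 for HepSE cholecystitis: Cholecystitis-related hepatic side effect score drawn from the DILIps (drug-induced liver injury prediction) training data set; call rule not given here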;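 for HepSE cirrhosis: cirrhosis hepatic side effect score taken from the DILIps (drug-induced liver injury prediction) training set; call rule not given here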; for HepSE hepatic failure: call rule not given here;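 for HepSE hepatomegaly: hepatic side effect score for hepatomegaly, taken from the training set of the DILIps drug-induced liver injury prediction system; call rule not given here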; for HepSE liver disease: call rule not given here;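 for HepSE liver fatty: hepatic side effect score for fatty liver, taken from the DILIps training set for predicting drug-induced liver injury; call rule not given here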
Hepatotoxicity [3] = system: Hepatotoxicity; remark: listed apart in the source;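 for HepSE bilirubinemia: bilirubinemia hepatic side effect score drawn from the DILIps training data, a prediction system for drug-induced liver injury; call rule not given here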;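 for HepSE cholecystitis: Cholecystitis-related hepatic side effect score drawn from the DILIps (drug-induced liver injury prediction) training data set; call rule not given here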;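 for HepSE cirrhosis: cirrhosis hepatic side effect score taken from the DILIps (drug-induced liver injury prediction) training set; call rule not given here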; for HepSE hepatic failure: call rule not given here;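 for HepSE hepatomegaly: hepatic side effect score for hepatomegaly, taken from the training set of the DILIps drug-induced liver injury prediction system; call rule not given here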; for HepSE liver disease: call rule not given here;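 for HepSE liver fatty: hepatic side effect score for fatty liver, taken from the DILIps training set for predicting drug-induced liver injury; call rule not given here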
Hepatotoxicity [4] = system: Hepatotoxicity; remark: listed apart in the source;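 for HepSE bilirubinemia: bilirubinemia hepatic side effect score drawn from the DILIps training data, a prediction system for drug-induced liver injury; call rule not given here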;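 for HepSE cholecystitis: Cholecystitis-related hepatic side effect score drawn from the DILIps (drug-induced liver injury prediction) training data set; call rule not given here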;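 for HepSE cirrhosis: cirrhosis hepatic side effect score taken from the DILIps (drug-induced liver injury prediction) training set; call rule not given here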; for HepSE hepatic failure: call rule not given here;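 for HepSE hepatomegaly: hepatic side effect score for hepatomegaly, taken from the training set of the DILIps drug-induced liver injury prediction system; call rule not given here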; for HepSE liver disease: call rule not given here;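 for HepSE liver fatty: hepatic side effect score for fatty liver, taken from the DILIps training set for predicting drug-induced liver injury; call rule not given here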
Hepatotoxicity [5] = system: Hepatotoxicity; remark: listed apart in the source; for HepSE hepatic failure: call rule not given here; for HepSE liver disease: call rule not given here
Hepatotoxicity [6] = system: Hepatotoxicity; remark: listed apart in the source; for HepSE hepatic failure: call rule not given here; for HepSE liver disease: call rule not given here
Hepatotoxicity [7] = system: Hepatotoxicity; remark: listed apart in the source
Hepatotoxicity [8] = system: Hepatotoxicity; remark: listed apart in the source
Hepatotoxicity [9] = system: Hepatotoxicity; remark: listed apart in the source
Hepatotoxicity [10] = system: Hepatotoxicity; remark: listed apart in the source
Hepatotoxicity [11] = system: Hepatotoxicity; remark: listed apart in the source
Hepatotoxicity [12] = system: Hepatotoxicity; remark: listed apart in the source
Hepatotoxicity [13] = system: Hepatotoxicity; remark: listed apart in the source
Hepatotoxicity [14] = system: Hepatotoxicity; remark: listed apart in the source

Compound | HepSE_liver fatty (Hepatotoxicity [1]) | HepSE_bilirubinemia (Hepatotoxicity [2]) | HepSE_hepatomegaly (Hepatotoxicity [3]) | HepSE_liver disease (Hepatotoxicity [4]) | HepSE_hepatic failure (Hepatotoxicity [5]) | HepSE_cirrhosis (Hepatotoxicity [6]) | HepSE_cholecystitis (Hepatotoxicity [7]) | HepSE_elevated liver function tests (Hepatotoxicity [8]) | HepSE_liver function tests abnormal (Hepatotoxicity [9]) | HepSE_Combined Scores (Hepatotoxicity [10]) | HepSE_hepatitis (Hepatotoxicity [11]) | HepSE_hepatic necrosis (Hepatotoxicity [12]) | HepSE_jaundice (Hepatotoxicity [13]) | HepSE_cholelithiasis (Hepatotoxicity [14]) | also measured
c1ccc2[nH]c(-c3cscn3)nc2c1 [THIABENDAZOLE] | 0 | 0 | 0 | 0 | 1 | 0 | 0 | 0 | 0 | 2 | 0 | 0 | 1 | 0 | 
COCCOC(=O)C1=C(C)NC(C)=C(C(=O)OC(C)C)C1c1cccc([N+](=O)[O-])c1 (configuration not stated) [NIMODIPINE] | 0 | 0 | 0 | 0 | 0 | 0 | 0 | 0 | 0 | 2 | 1 | 0 | 1 | 0 | 
CCCCCCCCCCCCCCCCCCCCCCO [DOCOSANOL] | 0 | 0 | 0 | 0 | 0 | 0 | 0 | 0 | 0 | 0 | 0 | 0 | 0 | 0 | 
NC(=O)CC[C@H](N)C(=O)O [GLUTAMINE] | 0 | 0 | 0 | 0 | 0 | 0 | 0 | 0 | 0 | 0 | 0 | 0 | 0 | 0 | 
Cc1cccc(Nc2ccccc2C(=O)O)c1C [MEFENAMIC ACID] |  |  |  |  |  |  |  |  |  |  |  |  |  |  | HepSE_liver fatty (Hepatotoxicity [1]; Liver): 0; HepSE_bilirubinemia (Hepatotoxicity [2]; Liver): 0; HepSE_hepatomegaly (Hepatotoxicity [3]; Liver): 0; HepSE_liver disease (Hepatotoxicity [4]; Liver): 0; HepSE_hepatic failure (Hepatotoxicity [5]; Liver): 1; HepSE_cirrhosis (Hepatotoxicity [6]; Liver): 0; HepSE_cholecystitis (Hepatotoxicity [7]; Liver): 0; HepSE_elevated liver function tests (Hepatotoxicity [8]; Liver): 0; HepSE_liver function tests abnormal (Hepatotoxicity [9]; Liver): 0; HepSE_Combined Scores (Hepatotoxicity [10]; Liver): 3; HepSE_hepatitis (Hepatotoxicity [11]; Liver): 1; HepSE_hepatic necrosis (Hepatotoxicity [12]; Liver): 0; HepSE_jaundice (Hepatotoxicity [13]; Liver): 1; HepSE_cholelithiasis (Hepatotoxicity [14]; Liver): 0
COc1ccccc1OCC(O)CN1CCN(CC(=O)Nc2c(C)cccc2C)CC1 (configuration not stated) [RANOLAZINE] | 0 | 0 | 0 | 0 | 0 | 0 | 0 | 0 | 0 | 0 | 0 | 0 | 0 | 0 | 
CC(=O)[C@H]1CC[C@H]2[C@@H]3CCC4=CC(=O)CC[C@]4(C)[C@H]3CC[C@]12C [PROGESTERONE] | 0 | 0 | 0 | 0 | 1 | 0 | 0 | 0 | 0 | 4 | 1 | 1 | 1 | 0 | 
Cc1cn[nH]c1 [FOMEPIZOLE] | 0 | 0 | 0 | 0 | 0 | 0 | 0 | 0 | 0 | 0 | 0 | 0 | 0 | 0 | 
CNS(=O)(=O)Cc1ccc2[nH]cc(CCN(C)C)c2c1 | 0 | 0 | 0 | 0 | 0 | 0 | 0 | 1 | 1 | 2 | 0 | 0 | 0 | 0 | 
CN(C)CCC=C1c2ccccc2CCc2ccccc21 [AMITRIPTYLINE] | 0 | 0 | 0 | 0 | 1 | 0 | 0 | 0 | 0 | 3 | 1 | 0 | 1 | 0 | 
CCc1cccc2c3c([nH]c12)C(CC)(CC(=O)O)OCC3 (configuration not stated) [ETODOLAC] | 0 | 0 | 0 | 0 | 1 | 0 | 0 | 0 | 0 | 4 | 1 | 1 | 1 | 0 | 
CC(=O)OCC(=O)[C@@]12OC3(CCCC3)O[C@@H]1C[C@H]1[C@@H]3CCC4=CC(=O)C=C[C@]4(C)[C@@]3(F)[C@@H](O)C[C@@]12C [AMCINONIDE] | 0 | 0 | 0 | 0 | 0 | 0 | 0 | 0 | 0 | 0 | 0 | 0 | 0 | 0 | 
CNC(=O)c1cc(Oc2ccc(NC(=O)Nc3ccc(Cl)c(C(F)(F)F)c3)cc2)ccn1 [SORAFENIB] | 0 | 0 | 0 | 0 | 0 | 0 | 1 | 0 | 0 | 2 | 0 | 0 | 1 | 0 | 
